These results are taken from patent publication US20240025922A1, “TETRAHYDROPYRIDO[3,4-d]PYRIMIDINES AS HPK1 INHIBITORS” (Merck Patent GmbH, priority 2022, published 2024).

Where only a bound is given, the exact number is not on record here.

Assay [1] has as its target HPK1 (SLP76 phosphorylation at Ser376 in Jurkat and EL-4 cells) (Homo sapiens, UniProt Q92918). It is filed as cell-based. To be noted: αCD3/αCD28 Dynabeads stimulated cells, pSLP76 (Ser376) detection; read-out: HPK1 pSLP76 IC50. The method in brief: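 Jurkat (human) and EL-4 (mouse) cells, endogenous HPK1/SLP76, preincubated 60 min with compounds (10-point dilution), then stimulated with αCD3/αCD28 beads at 37 °C: 15 min for Jurkat, 30 min for EL-4. Ser376 pSLP76 in lysates read by AlphaLISA (Jurkat) or HTRF (EL-4); % inhibition and IC50 fitted.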

Assay [2] has as its target full-length human HPK1 (MAP4K1) (Homo sapiens (Human), UniProt Q92918). The experiment in a line: HPK1 Kinase Assay (Biochemical Assay), ADP-Glo. To be noted: GST-HPK1 3.2 nM, 10 μM ATP, MBP substrate, read-out: HPK1 enzymatic IC50. The method in brief: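 GST-tagged full-length human HPK1 was expressed in Sf21 cells and used at 3.2 nM in 50 mM HEPES pH 7.5, 10 mM MgCl2, 2 mM DTT, 12.5 mM O-glycerophosphate, 0.01% BSA and 0.02% Brij-35. It was preincubated 15 min with 10-point compound dilutions, and the reaction was started with a start mix of 10 μM ATP and 3.235 μM MBP. After 120 min, ADP was measured by ADP-Glo luminescence and IC50 derived.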
On the technique in general: ADP-Glo turns the ADP formed in a reaction into a luminescent signal.

HPK1 (SLP76 phosphorylation at Ser376 in Jurkat and EL-4 cells), sequence (Q92918 whole entry, looked up): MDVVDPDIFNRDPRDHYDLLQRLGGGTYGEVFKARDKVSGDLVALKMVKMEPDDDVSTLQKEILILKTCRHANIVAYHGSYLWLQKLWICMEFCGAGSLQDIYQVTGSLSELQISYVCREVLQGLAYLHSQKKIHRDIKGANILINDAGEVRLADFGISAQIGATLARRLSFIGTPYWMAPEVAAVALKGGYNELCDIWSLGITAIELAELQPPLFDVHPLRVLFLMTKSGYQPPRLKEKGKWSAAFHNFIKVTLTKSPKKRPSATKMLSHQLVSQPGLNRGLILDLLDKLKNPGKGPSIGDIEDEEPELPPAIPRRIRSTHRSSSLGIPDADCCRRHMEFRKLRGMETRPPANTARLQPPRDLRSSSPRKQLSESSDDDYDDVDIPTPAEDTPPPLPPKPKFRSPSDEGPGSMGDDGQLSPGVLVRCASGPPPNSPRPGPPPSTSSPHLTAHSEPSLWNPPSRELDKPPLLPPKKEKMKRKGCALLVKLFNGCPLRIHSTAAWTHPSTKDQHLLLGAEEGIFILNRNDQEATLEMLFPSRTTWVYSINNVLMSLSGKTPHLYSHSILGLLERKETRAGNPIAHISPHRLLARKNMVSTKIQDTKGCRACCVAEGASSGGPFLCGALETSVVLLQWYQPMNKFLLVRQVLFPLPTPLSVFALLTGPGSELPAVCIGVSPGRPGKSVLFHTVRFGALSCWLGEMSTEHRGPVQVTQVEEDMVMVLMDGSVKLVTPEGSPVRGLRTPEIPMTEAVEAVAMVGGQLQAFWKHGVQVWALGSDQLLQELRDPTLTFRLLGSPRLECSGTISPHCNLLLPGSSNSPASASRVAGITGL
full-length human HPK1 (MAP4K1), sequence (Q92918 whole entry): as the sequence (Q92918 whole entry, looked up) above

By IC50 is commonly meant the concentration at which inhibition is half-maximal. As to `COCCOc1ccc(Nc2ncc3c(n2)CN(c2cnc4c(c2C)NCCO4)CC3)cc1` [Example 98, N-(4-(2-methoxyethoxy)phenyl)-7-(8-methyl-2,3-dihydro-1H-pyrido[2,3-b][1,4]oxazin-7-yl)-5,6,7,8-tetrahydropyrido[3,4-d]pyrimidin-2-amine], the figures for the IC50 in assay [1] and in assay [2] were 500 to 1000 nM and less than 100 nM, respectively.

Turning to `Cc1cc(Nc2ncc3c(n2)CN(c2cnc4c(c2C)NCCO4)CC3)cnc1NCCN(C)C` [Example 28, N2-[2-(dimethylamino)ethyl]-3-methyl-N5-(7-{8-methyl-1H,2H,3H-pyrido[2,3-b][1,4]oxazin-7-yl}-5H,6H,7H,8H-pyrido[3,4-d]pyrimidin-2-yl)pyridine-2,5-diamine], the IC50 in assay [1] is 500 to 1000 nM; in assay [2], less than 100 nM.

For `Cc1c(N2CCc3cnc(Nc4cnc(CS(C)(=O)=O)c(F)c4)nc3C2)cnc2c1NCCO2` [Example 19, 5-fluoro-6-(methanesulfonylmethyl)-N-(7-{8-methyl-1H,2H,3H-pyrido[2,3-b][1,4]oxazin-7-yl}-5H,6H,7H,8H-pyrido[3,4-d]pyrimidin-2-yl)pyridin-3-amine], the IC50 is less than 500 nM in assay [1] and less than 100 nM in assay [2].

Turning to `Cc1c(N2CCc3cnc(Nc4ccc(CS(N)(=O)=O)cc4)nc3C2)cnc2c1NCCO2` [Example 128, {4-[(7-{8-methyl-1H,2H,3H-pyrido[2,3-b][1,4]oxazin-7-yl}-5H,6H,7H,8H-pyrido[3,4-d]pyrimidin-2-yl)amino]phenyl}methanesulfonamide], the IC50 in assay [1] is less than 500 nM; in assay [2] it was less than 100 nM.

Turning to `Cc1c(N2CCc3cnc(Nc4ccnc(CS(C)(=O)=O)c4)nc3C2)cnc2c1NCCO2` [Example 49, 7-(8-methyl-2,3-dihydro-1H-pyrido[2,3-b][1,4]oxazin-7-yl)-N-(2-((methylsulfonyl)methyl)pyridin-4-yl)-5,6,7,8-tetrahydropyrido[3,4-d]pyrimidin-2-amine], the values for the IC50 in assay [1] and in assay [2] were 500 to 1000 nM and less than 100 nM, respectively.

With `CC(=O)Nc1ccc(Nc2ncc3c(n2)CN(c2cnc4c(c2C)NCCO4)CC3)cn1` [Example 73, N-(5-((7-(8-methyl-2,3-dihydro-1H-pyrido[2,3-b][1,4]oxazin-7-yl)-5,6,7,8-tetrahydropyrido[3,4-d]pyrimidin-2-yl)amino)pyridin-2-yl)acetamide], the IC50 in assay [1] was 500 to 1000 nM; in assay [2] it was less than 100 nM.

Regarding `Cc1c(N2CCc3cnc(Nc4ccc(CS(C)(=O)=O)cc4)nc3C2C)cnc2c1NCCO2` (stereo not shown) [Example 180, N-[4-(methanesulfonylmethyl)phenyl]-8-methyl-7-{8-methyl-1H,2H,3H-pyrido[2,3-b][1,4]oxazin-7-yl}-5H,6H,7H,8H-pyrido[3,4-d]pyrimidin-2-amine], the IC50 was less than 500 nM in assay [1] and less than 100 nM in assay [2].

Regarding `Cc1c(N2CCc3cnc(Nc4ccc(Cn5ccnn5)cc4)nc3C2)cnc2c1NCCO2` [Example 183, 7-{8-methyl-1H,2H,3H-pyrido[2,3-b][1,4]oxazin-7-yl}-N-{4-[(1H-1,2,3-triazol-1-yl)methyl]phenyl}-5H,6H,7H,8H-pyrido[3,4-d]pyrimidin-2-amine], the results for the IC50 in assay [1] and in assay [2] were less than 500 nM and less than 100 nM, respectively.

Turning to `Cc1c(N2CCc3cnc(Nc4cccc(CS(C)(=O)=O)c4)nc3C2)cnc2c1NCCO2` [Example 50, 7-(8-methyl-2,3-dihydro-1H-pyrido[2,3-b][1,4]oxazin-7-yl)-N-(3-((methylsulfonyl)methyl)phenyl)-5,6,7,8-tetrahydropyrido[3,4-d]pyrimidin-2-amine], the IC50 in assay [1] was less than 500 nM; in assay [2], less than 100 nM.

On to `Cc1c(N2CCc3cnc(Nc4cnc5c(c4)CN(CC(F)(F)F)CC5)nc3C2)cnc2c1NCCO2` [Example 106, 7-(8-methyl-2,3-dihydro-1H-pyrido[2,3-b][1,4]oxazin-7-yl)-N-(6-(2,2,2-trifluoroethyl)-5,6,7,8-tetrahydro-1,6-naphthyridin-3-yl)-5,6,7,8-tetrahydropyrido[3,4-d]pyrimidin-2-amine], for which the IC50 in assay [1] was greater than 1000 nM; in assay [2], less than 100 nM.

Turning to `Cc1c(N2CCc3cnc(Nc4ccc(CC(=O)N5CC6(COC6)C5)cc4)nc3C2)cnc2c1NCCO2` [Example 164, 2-{4-[(7-{8-methyl-1H,2H,3H-pyrido[2,3-b][1,4]oxazin-7-yl}-5H,6H,7H,8H-pyrido[3,4-d]pyrimidin-2-yl)amino]phenyl}-1-{2-oxa-6-azaspiro[3.3]heptan-6-yl}ethan-1-one], the IC50 in assay [1] is less than 500 nM; in assay [2], less than 100 nM.

Consider `Cc1c(N2CCc3cnc(Nc4ccc(CC(=O)N5CC(N6CCOCC6)C5)cc4)nc3C2)cnc2c1NCCO2` [Example 165, 2-{4-[(7-{8-methyl-1H,2H,3H-pyrido[2,3-b][1,4]oxazin-7-yl}-5H,6H,7H,8H-pyrido[3,4-d]pyrimidin-2-yl)amino]phenyl}-1-[3-(morpholin-4-yl)azetidin-1-yl]ethan-1-one], for which the IC50 in assay [1] was less than 500 nM; in assay [2], less than 100 nM.

Turning to `Cc1c(N2CCc3cnc(Nc4ccc(N5CCC(O)CC5)cc4)nc3C2)cnc2c1NCCO2` [Example 111, 1-(4-((7-(8-methyl-2,3-dihydro-1H-pyrido[2,3-b][1,4]oxazin-7-yl)-5,6,7,8-tetrahydropyrido[3,4-d]pyrimidin-2-yl)amino)phenyl)piperidin-4-ol], the IC50 is 500 to 1000 nM in assay [1] and less than 100 nM in assay [2].

For the molecule `Cc1c(N2CCc3cnc(Nc4ccc5c(c4)CCOC5)nc3C2)cnc2c1NCCO2` [Example 84, N-(isochroman-6-yl)-7-(8-methyl-2,3-dihydro-1H-pyrido[2,3-b][1,4]oxazin-7-yl)-5,6,7,8-tetrahydropyrido[3,4-d]pyrimidin-2-amine], the values for the IC50 in assay [1] and in assay [2] were less than 500 nM and less than 100 nM, respectively.

In the case of `Cc1cc(Nc2ncc3c(n2)CN(c2cnc4c(c2C)NCCO4)CC3)ccc1NC(=O)CN1CCCC1` [Example 10, N-{2-methyl-4-[(7-{8-methyl-1H,2H,3H-pyrido[2,3-b][1,4]oxazin-7-yl}-5H,6H,7H,8H-pyrido[3,4-d]pyrimidin-2-yl)amino]phenyl}-2-(pyrrolidin-1-yl)acetamide], the IC50 in assay [1] was less than 500 nM; in assay [2] it was less than 100 nM.

Consider `Cc1c(N2CCc3cnc(Nc4ccc(NCCN5CCOCC5)c(F)c4)nc3C2)cnc2c1NCCO2` [Example 6, 2-fluoro-N4-(7-{8-methyl-1H,2H,3H-pyrido[2,3-b][1,4]oxazin-7-yl}-5H,6H,7H,8H-pyrido[3,4-d]pyrimidin-2-yl)-N1-[2-(morpholin-4-yl)ethyl]benzene-1,4-diamine], for which the IC50 in assay [1] was less than 500 nM; in assay [2], less than 100 nM.

Take `Cc1c(N2CCc3cnc(Nc4ccc([C@@H](C)S(C)(=O)=O)cc4)nc3C2)cnc2c1NCCO2` (single isomer, unassigned) [Example 158]: the IC50 in assay [1] was less than 500 nM; in assay [2], less than 100 nM.

Consider `COCCNC(=O)c1ccc(Nc2ncc3c(n2)CN(c2cnc4c(c2C)NCCO4)CC3)cc1` [Example 44, N-(2-methoxyethyl)-4-[(7-{8-methyl-1H,2H,3H-pyrido[2,3-b][1,4]oxazin-7-yl}-5H,6H,7H,8H-pyrido[3,4-d]pyrimidin-2-yl)amino]benzamide], for which the IC50 in assay [1] is less than 500 nM; in assay [2], less than 100 nM.

For `Cc1cc(Nc2ncc3c(n2)CN(c2cnc4c(c2C)NCCO4)CC3)cnc1NCCN1CCOCC1` [Example 36, 3-methyl-N5-(7-{8-methyl-1H,2H,3H-pyrido[2,3-b][1,4]oxazin-7-yl}-5H,6H,7H,8H-pyrido[3,4-d]pyrimidin-2-yl)-N2-[2-(morpholin-4-yl)ethyl]pyridine-2,5-diamine], the IC50 in assay [1] is 500 to 1000 nM; in assay [2] it was less than 100 nM.

In the case of `Cc1c(N2CCc3cnc(Nc4cnc5c(c4)CC(O)CC5)nc3C2)cnc2c1NCCO2` (stereo not shown) [Example 110, 3-((7-(8-methyl-2,3-dihydro-1H-pyrido[2,3-b][1,4]oxazin-7-yl)-5,6,7,8-tetrahydropyrido[3,4-d]pyrimidin-2-yl)amino)-5,6,7,8-tetrahydroquinolin-6-ol], the figures for the half-maximal inhibitory concentration (IC50) in assay [1] and in assay [2] were 500 to 1000 nM and less than 100 nM, respectively.

`CNC(=O)c1ccc(Nc2ncc3c(n2)CN(c2cnc4c(c2C)NCCO4)CC3)cc1F` [Example 74, 2-fluoro-N-methyl-4-((7-(8-methyl-2,3-dihydro-1H-pyrido[2,3-b][1,4]oxazin-7-yl)-5,6,7,8-tetrahydropyrido[3,4-d]pyrimidin-2-yl)amino)benzamide]: the half-inhibitory concentration (IC50) was less than 500 nM in assay [1] and less than 100 nM in assay [2].

With `Cc1c(N2CCc3cnc(Nc4ccc(CCS(C)(=O)=O)cc4)nc3C2)cnc2c1NCCO2` [Example 161, N-[4-(2-methanesulfonylethyl)phenyl]-7-{8-methyl-1H,2H,3H-pyrido[2,3-b][1,4]oxazin-7-yl}-5H,6H,7H,8H-pyrido[3,4-d]pyrimidin-2-amine], the IC50 in assay [1] was less than 500 nM; in assay [2] it was less than 100 nM.

On to `Cc1c(N2CCc3cnc(Nc4ccc(CS(=O)(=O)C5CC5)cn4)cc3C2)cnc2c1NCCO2` [Example 176, N-{5-[(cyclopropanesulfonyl)methyl]pyridin-2-yl}-6-{8-methyl-1H,2H,3H-pyrido[2,3-b][1,4]oxazin-7-yl}-5,6,7,8-tetrahydro-2,6-naphthyridin-3-amine], for which the IC50 was less than 500 nM in assay [1] and less than 100 nM in assay [2].
